The source made the active and inactive calls. No cut-off for these calls is given here.
Tests used:
[1] = system: Mus musculus; assay: Locomotor activity in CD1 mouse assessed as stimulation at 10 mg/kg, ip after 4 hrs relative to control; assay type: functional; details: route intraperitoneal
[2] = system: Mus musculus; assay: Locomotor activity in CD1 mouse assessed as stimulation at 1 mg/kg, ip after 3 hrs relative to control; assay type: functional; details: route intraperitoneal
[3] = system: Mus musculus; assay: Locomotor activity in CD1 mouse assessed as stimulation at 1 mg/kg, ip after 4 hrs relative to control; assay type: functional; details: route intraperitoneal
[4] = system: Mus musculus; assay: Locomotor activity in CD1 mouse assessed as stimulation at 1 mg/kg, ip after 2 hrs relative to control; assay type: functional; details: route intraperitoneal
[5] = system: Mus musculus; assay: Activity in CD1 mouse assessed as stimulation at 1 mg/kg, ip after 4 hrs; assay type: functional, organism-based; set-up: dose 1 mg/kg
[6] = system: Mus musculus; assay: Locomotor activity in CD1 mouse assessed as stimulation at 10 mg/kg, ip after 1 hr relative to control; assay type: functional; details: route intraperitoneal
[7] = system: Mus musculus; assay: Locomotor activity in CD1 mouse assessed as stimulation at 30 mg/kg, ip after 3 hrs relative to control; assay type: functional; details: route intraperitoneal
[8] = target: Sodium-dependent serotonin transporter (Homo sapiens, UniProt P31645)
Description: Displacement of [3H]paroxetine from 5HTT

[9] = system: Mus musculus; assay: Activity in CD1 mouse assessed as circling at 100 mg/kg, ip after 4 hrs; assay type: functional, organism-based; set-up: dose 100 mg/kg
[10] = system: Mus musculus; assay: Activity in CD1 mouse assessed as hyperactivity at 10 mg/kg, ip after 4 hrs; assay type: functional, organism-based; set-up: dose 10 mg/kg
[11] = system: Mus musculus; assay: Locomotor activity in CD1 mouse assessed as stimulation at 3 mg/kg, ip after 2 hrs relative to control; assay type: functional; details: route intraperitoneal
[12] = system: Rattus norvegicus; assay: Cocaine discrimination in ip dosed CD Albino rat; assay type: functional
[13] = system: Mus musculus; assay: Locomotor activity in CD1 mouse assessed as stimulation at 30 mg/kg, ip after 2 hrs relative to control; assay type: functional; details: route intraperitoneal
[14] = system: Rattus norvegicus; assay: Drug discrimination effect in CD Albino rat assessed as percent of rat choosing cocaine lever at 5.6 mg/kg, ip; assay type: functional; details: route intraperitoneal
[15] = system: Mus musculus; assay: Locomotor activity in CD1 mouse assessed as stimulation at 1 mg/kg, ip after 1 hr relative to control; assay type: functional; details: route intraperitoneal
[16] = target: Sodium-dependent dopamine transporter (Homo sapiens, UniProt Q01959); assay: Displacement of [3H]WIN-35428 from DAT
[17] = system: Mus musculus; assay: Locomotor activity in CD1 mouse assessed as stimulation at 3 mg/kg, ip after 3 hrs relative to control; assay type: functional; details: route intraperitoneal
[18] = system: Mus musculus; assay: Locomotor activity in CD1 mouse assessed as stimulation at 3 mg/kg, ip after 4 hrs relative to control; assay type: functional; details: route intraperitoneal
[19] = system: Rattus norvegicus; assay: Drug discrimination effect in CD Albino rat assessed as percent of rat choosing cocaine lever at 1 mg/kg, ip; assay type: functional; details: route intraperitoneal
[20] = system: Mus musculus; assay: Activity in CD1 mouse assessed as stereotypy at 10 mg/kg, ip after 4 hrs; assay type: functional, organism-based; set-up: dose 10 mg/kg
[21] = system: Mus musculus; assay: Locomotor activity in CD1 mouse assessed as stimulation at 3 mg/kg, ip after 1 hr relative to control; assay type: functional; details: route intraperitoneal
[22] = system: Mus musculus; assay: Locomotor activity in CD1 mouse assessed as stimulation at 10 mg/kg, ip after 3 hrs relative to control; assay type: functional; details: route intraperitoneal
[23] = system: Rattus norvegicus; assay: Drug discrimination effect in CD Albino rat assessed as percent of rat choosing cocaine lever at 1.7 mg/kg, ip; assay type: functional; details: route intraperitoneal
[24] = system: Mus musculus; assay: Locomotor activity in CD1 mouse assessed as stimulation at 30 mg/kg, ip after 1 hr relative to control; assay type: functional; details: route intraperitoneal
[25] = system: Mus musculus; assay: Locomotor activity in ip dosed CD1 mouse in peak hour; assay type: functional
[26] = system: Mus musculus; assay: Locomotor activity in CD1 mouse assessed as stimulation at 30 mg/kg, ip after 4 hrs relative to control; assay type: functional; details: route intraperitoneal
[27] = system: Mus musculus; assay: Locomotor activity in CD1 mouse assessed as stimulation at 10 mg/kg, ip after 2 hrs relative to control; assay type: functional; details: route intraperitoneal
[28] = system: Rattus norvegicus; assay: Drug discrimination effect in CD Albino rat assessed as percent of rat choosing cocaine lever at 3 mg/kg, ip; assay type: functional; details: route intraperitoneal
[29] = system: Mus musculus; assay: Activity in CD1 mouse assessed as stereotypy at 100 mg/kg, ip after 4 hrs; assay type: functional, organism-based; set-up: dose 100 mg/kg
[30] = system: Mus musculus; assay: Locomotor activity in CD1 mouse assessed as stimulation at 0.03 mg/kg, ip after 2 hrs relative to control; assay type: functional; details: route intraperitoneal
[31] = system: Mus musculus; assay: Activity in CD1 mouse assessed as circling at 10 mg/kg, ip after 4 hrs; assay type: functional, organism-based; set-up: dose 10 mg/kg
[32] = system: Mus musculus; assay: Locomotor activity in CD1 mouse assessed as stimulation at 0.1 mg/kg, ip after 1 hr relative to control; assay type: functional; details: route intraperitoneal
[33] = system: Rattus norvegicus; assay: Drug discrimination effect in CD Albino rat assessed as percent of rat choosing cocaine lever at 0.1 mg/kg, ip; assay type: functional; details: route intraperitoneal
[34] = system: Mus musculus; assay: Activity in CD1 mouse assessed as stereotypy at 1 mg/kg, ip after 4 hrs; assay type: functional, organism-based; set-up: dose 1 mg/kg
[35] = system: Mus musculus; assay: Locomotor activity in CD1 mouse assessed as stimulation at 0.03 mg/kg, ip after 3 hrs relative to control; assay type: functional; details: route intraperitoneal
[36] = system: Mus musculus; assay: Locomotor activity in CD1 mouse assessed as stimulation at 0.1 mg/kg, ip after 4 hrs relative to control; assay type: functional; details: route intraperitoneal
[37] = system: Mus musculus; assay: Activity in CD1 mouse assessed as hyperactivity at 1 mg/kg, ip after 4 hrs; assay type: functional, organism-based; set-up: dose 1 mg/kg
[38] = system: Mus musculus; assay: Locomotor activity in CD1 mouse assessed as stimulation at 0.1 mg/kg, ip after 3 hrs relative to control; assay type: functional; details: route intraperitoneal
[39] = system: Mus musculus; assay: Locomotor activity in CD1 mouse assessed as stimulation at 0.3 mg/kg, ip after 3 hrs relative to control; assay type: functional; details: route intraperitoneal
[40] = system: Mus musculus; assay: Locomotor activity in CD1 mouse assessed as stimulation at 0.3 mg/kg, ip after 1 hr relative to control; assay type: functional; details: route intraperitoneal
[41] = system: Rattus norvegicus; assay: Drug discrimination effect in CD Albino rat assessed as percent of rat choosing cocaine lever at 0.17 mg/kg, ip; assay type: functional; details: route intraperitoneal
[42] = system: Mus musculus; assay: Locomotor activity in CD1 mouse assessed as stimulation at 0.03 mg/kg, ip after 4 hrs relative to control; assay type: functional; details: route intraperitoneal
[43] = system: Mus musculus; assay: Locomotor activity in CD1 mouse assessed as stimulation at 0.1 mg/kg, ip after 2 hrs relative to control; assay type: functional; details: route intraperitoneal
[44] = system: Mus musculus; assay: Locomotor activity in CD1 mouse assessed as stimulation at 0.3 mg/kg, ip after 2 hrs relative to control; assay type: functional; details: route intraperitoneal
[45] = system: Mus musculus; assay: Locomotor activity in CD1 mouse assessed as stimulation at 0.03 mg/kg, ip after 1 hr relative to control; assay type: functional; details: route intraperitoneal
[46] = system: Rattus norvegicus; assay: Drug discrimination effect in CD Albino rat assessed as percent of rat choosing cocaine lever at 0.3 mg/kg, ip; assay type: functional; details: route intraperitoneal
[47] = system: Mus musculus; assay: Locomotor activity in CD1 mouse assessed as stimulation at 0.3 mg/kg, ip after 4 hrs relative to control; assay type: functional; details: route intraperitoneal
[48] = system: Rattus norvegicus; assay: Drug discrimination effect in CD Albino rat assessed as percent of rat choosing cocaine lever at 30 mg/kg, ip; assay type: functional; details: route intraperitoneal
[49] = system: Rattus norvegicus; assay: Drug discrimination effect in CD Albino rat assessed as percent of rat choosing cocaine lever at 10 mg/kg, ip; assay type: functional; details: route intraperitoneal
[50] = system: Mus musculus; assay: Activity in CD1 mouse assessed as convulsions at 100 mg/kg, ip after 4 hrs; assay type: functional, organism-based; set-up: dose 100 mg/kg
[51] = target: Sodium-dependent noradrenaline transporter (Homo sapiens, UniProt P23975); assay: Displacement of [3H]nisoxetine from NET
[52] = system: Mus musculus; assay: Activity in CD1 mouse assessed as slight or intermittent stimulation at 10 mg/kg, ip after 4 hrs; assay type: functional, organism-based; set-up: dose 10 mg/kg
[53] = system: Rattus norvegicus; assay: Drug discrimination effect in CD Albino rat assessed as percent of rat choosing cocaine lever at 17 mg/kg, ip; assay type: functional; details: route intraperitoneal
[54] = system: Mus musculus; assay: Activity in CD1 mouse assessed as hind limb splay at 100 mg/kg, ip after 4 hrs; assay type: functional, organism-based; set-up: dose 100 mg/kg; details: Hindlimb
[55] = system: Mus musculus; assay: Activity in CD1 mouse assessed as ataxia at 100 mg/kg, ip after 4 hrs; assay type: functional, organism-based; set-up: dose 100 mg/kg
[56] = system: Mus musculus; assay: Activity in CD1 mouse assessed as hypoactivity at 100 mg/kg, ip after 4 hrs; assay type: functional, organism-based; set-up: dose 100 mg/kg

Chain of Sodium-dependent dopamine transporter (Q01959 whole entry): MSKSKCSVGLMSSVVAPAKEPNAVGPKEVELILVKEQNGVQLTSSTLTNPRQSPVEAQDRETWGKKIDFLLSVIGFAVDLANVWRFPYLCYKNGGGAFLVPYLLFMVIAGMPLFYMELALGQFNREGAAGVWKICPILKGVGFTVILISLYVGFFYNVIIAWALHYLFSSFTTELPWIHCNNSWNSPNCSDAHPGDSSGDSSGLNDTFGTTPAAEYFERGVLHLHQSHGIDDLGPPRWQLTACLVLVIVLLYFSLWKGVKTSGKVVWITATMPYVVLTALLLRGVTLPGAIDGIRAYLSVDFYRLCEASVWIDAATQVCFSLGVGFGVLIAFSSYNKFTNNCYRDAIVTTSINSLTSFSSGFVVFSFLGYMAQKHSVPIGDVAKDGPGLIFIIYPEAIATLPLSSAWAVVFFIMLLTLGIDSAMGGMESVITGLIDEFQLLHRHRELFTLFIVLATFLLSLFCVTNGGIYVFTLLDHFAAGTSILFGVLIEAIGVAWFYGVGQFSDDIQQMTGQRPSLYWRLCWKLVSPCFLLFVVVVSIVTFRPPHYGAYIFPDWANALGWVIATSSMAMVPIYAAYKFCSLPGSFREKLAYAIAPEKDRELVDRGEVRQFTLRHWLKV
Chain of Sodium-dependent serotonin transporter (P31645 whole entry): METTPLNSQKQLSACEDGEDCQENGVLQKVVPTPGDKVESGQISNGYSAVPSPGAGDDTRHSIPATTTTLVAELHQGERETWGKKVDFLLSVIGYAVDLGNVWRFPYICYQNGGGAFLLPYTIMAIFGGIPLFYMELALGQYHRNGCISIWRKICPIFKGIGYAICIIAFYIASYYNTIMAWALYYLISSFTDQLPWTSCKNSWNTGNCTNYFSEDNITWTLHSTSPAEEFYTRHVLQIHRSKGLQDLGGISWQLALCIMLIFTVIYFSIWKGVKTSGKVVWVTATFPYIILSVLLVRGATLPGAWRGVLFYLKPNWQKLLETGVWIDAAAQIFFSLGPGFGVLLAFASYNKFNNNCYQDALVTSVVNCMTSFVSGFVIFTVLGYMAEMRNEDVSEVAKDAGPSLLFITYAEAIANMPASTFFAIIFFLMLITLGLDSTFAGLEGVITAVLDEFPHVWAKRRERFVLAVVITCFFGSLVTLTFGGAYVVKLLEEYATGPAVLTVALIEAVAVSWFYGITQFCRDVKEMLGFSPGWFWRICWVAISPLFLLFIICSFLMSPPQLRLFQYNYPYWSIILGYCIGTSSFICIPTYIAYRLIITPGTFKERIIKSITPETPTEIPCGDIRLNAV
Chain of Sodium-dependent noradrenaline transporter (P23975 whole entry): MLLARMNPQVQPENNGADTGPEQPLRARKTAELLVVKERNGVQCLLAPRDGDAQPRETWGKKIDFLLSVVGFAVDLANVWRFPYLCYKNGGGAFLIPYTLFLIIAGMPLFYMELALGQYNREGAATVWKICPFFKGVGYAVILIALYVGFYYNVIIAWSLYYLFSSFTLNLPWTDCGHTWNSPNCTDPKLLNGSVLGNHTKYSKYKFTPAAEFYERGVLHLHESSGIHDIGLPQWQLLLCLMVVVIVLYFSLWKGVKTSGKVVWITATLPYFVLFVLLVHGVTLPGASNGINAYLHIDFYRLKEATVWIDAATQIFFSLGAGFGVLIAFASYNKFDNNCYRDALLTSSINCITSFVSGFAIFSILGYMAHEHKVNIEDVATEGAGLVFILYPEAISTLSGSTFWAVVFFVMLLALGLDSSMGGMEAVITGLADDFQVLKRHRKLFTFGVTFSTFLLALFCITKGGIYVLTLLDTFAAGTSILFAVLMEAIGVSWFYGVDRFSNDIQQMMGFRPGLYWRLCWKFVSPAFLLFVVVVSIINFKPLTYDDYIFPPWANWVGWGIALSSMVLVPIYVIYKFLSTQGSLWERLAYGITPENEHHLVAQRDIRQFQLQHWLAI

| SMILES | Activity [1] [%] | Activity [2] [%] | Activity [3] [%] | Activity [4] [%] | Activity [6] [%] | Activity [7] [%] | IC50 [8] [nM] | Ki [8] [nM] | Activity [9] | Activity [11] [%] | ED50 [12] [mg/kg] | Activity [13] [%] | Activity [14] [%] | Activity [15] [%] | IC50 [16] [nM] | Activity [17] [%] | Activity [18] [%] | Activity [20] | Activity [21] [%] | Activity [22] [%] | further results |
| --- | --- | --- | --- | --- | --- | --- | --- | --- | --- | --- | --- | --- | --- | --- | --- | --- | --- | --- | --- | --- | --- |
| COC(=O)[C@@H]1C2CCC(C[C@H]1c1ccc(Br)cc1)N2C (stereo partly specified) | 781 | -56 | -12 | -26 | 353 | 1275 | 84 | 20.6 | Active | 88 | 2.98 | 861 | 88 | 35 | 1.7 | 100 | 109 | Active | 60 | 686 | Activity [5]: Active; Activity [10]: Active; Activity [19]: 13%; Activity [23]: 13%; Activity [24]: 518%; ED50 [25]: 6.6 mg/kg; Activity [26]: 883%; Activity [27]: 457%; Activity [28]: 50%; Activity [29]: Active |
| COC(=O)[C@@H]1C2CCC(C[C@@H]1c1ccc(Br)cc1)N2C (stereo partly specified) | – | 302 | 656 | 35 | – | – | 10.6 | 0.96 | Active | – | 0.17 | – | – | 258 | 1.7 | – | – | Active | – | – | Activity [30]: -39%; Activity [31]: Active; Activity [32]: -38%; Activity [33]: 14%; Activity [34]: Active; Activity [35]: 9%; Activity [36]: 116%; Activity [37]: Active; Activity [38]: 81%; Activity [39]: 869%; Activity [40]: 259%; Activity [41]: 50%; Activity [42]: -43%; Activity [43]: 29%; Activity [44]: 598%; Activity [45]: -30%; Activity [46]: 100%; Activity [47]: 834%; ED50 [25]: 0.1 mg/kg; Activity [29]: Active |
| COC(=O)[C@H]1C2CCC(C[C@@H]1c1ccc(C)cc1)N2C (stereo partly specified) | 55 | 39 | -68 | -76 | 24 | 17 | – | – | Active | 10 | 7.11 | 7 | 43 | -42 | 207 | -1 | 39 | – | 20 | 6 | Activity [48]: 100%; Activity [49]: 71%; Activity [50]: Active; IC50 [51]: 2230 nM; Ki [51]: 1120 nM; Activity [52]: Active; Activity [53]: 71%; Activity [54]: Active; Activity [55]: Active; Activity [24]: -23%; Activity [26]: 42%; Activity [27]: -11%; Activity [56]: Active; Activity [28]: 13% |

— ChEMBL document CHEMBL1149262, “Monoamine transporter binding, locomotor activity, and drug discrimination properties of 3-(4-substituted-phenyl)tropane-2-carboxylic acid methyl ester isomers” (J Med Chem, 2004)
